Source: patent publication US20030125336A1, “Hydrohalide salts of an HIV protease inhibitor” (priority 2001, published 2003)

Columns and labels:
wild-type HIV protease = wild-type HIV protease (Human immunodeficiency virus type 1 group M subtype B, UniProt P04585); assay: biochemical
viral construct V-18 = assay: cell spread assay (WO 01/05230), viral construct V-18; type: cell-based, HIV
Source text: (§1) Compound A and its hydrohalide salts are inhibitors of HIV protease, including mutant forms thereof that are resistant to known protease inhibitors.

viral construct K-60 = assay: cell spread assay (WO 01/05230), viral construct K-60; type: cell-based, HIV
Source text: as §1

[1] = target: HIV protease mutant enzyme K-60 (Human immunodeficiency virus type 1, UniProt P04585); assay: inhibition of microbial expressed HIV protease (WO 01/05230), mutant enzyme K-60; type: biochemical
[2] = target: HIV protease mutant enzyme V-18 (Human immunodeficiency virus type 1, UniProt P04585); assay: inhibition of microbial expressed HIV protease (WO 01/05230), mutant enzyme V-18; type: biochemical
[3] = oral absorption and pharmacokinetics in animal models; type: in vivo
viral construct Q60 = assay: cell spread assay (WO 01/05230), viral construct Q60; type: cell-based, HIV
Source text: as §1

[4] = target: HIV protease mutant enzyme Q-60 (Human immunodeficiency virus type 1, UniProt P04585); assay: inhibition of microbial expressed HIV protease (WO 01/05230), mutant enzyme Q-60; type: biochemical
[5] = solubility in aqueous solutions; type: physicochemical; conditions: aqueous solutions including dilute HCl (gastric acid) solutions
[6] = test system: wild-type viral construct; assay: cell spread assay (WO 01/05230), wild-type viral construct; type: cell-based, HIV
Source text: as §1

Q: With `COc1cncc(-c2cnc(C(C)(C)N3CCN(C[C@@H](O)C[C@@H](Cc4ccccc4)C(=O)N[C@H]4c5ccccc5OC[C@H]4O)[C@H](C(=O)NCC(F)(F)F)C3)o2)c1` [Compound A, (αR,γS,2S)-N-[(3S,4S)-3,4-dihydro-3-hydroxy-2H-1-benzopyran-4-yl]-y-hydroxy-4-[1-[5-(5-methoxy-3-pyridinyl)-2-oxazolyl]-1-methylethyl]-α-(phenylmethyl)-2-[[(2,2,2-trifluoroethyl)amino]carbonyl]-1-piperazinepentanamide] as the compound, how does the IC50 (wild-type HIV protease) read?
A: < 1 nM

Q: What about the “potency compared with indinavir” value (wild-type HIV protease; HIV protease inhibition assay) of the same compound?
A: significantly more potent

Q: And the CIC95 (viral construct V-18)?
A: below 125 nM

Q: And the CIC95 (viral construct K-60)?
A: below 125 nM

Q: And the IC50 [1]?
A: < 5 nM

Q: And the IC50 [2]?
A: < 5 nM

Q: And the oral absorption [3]?
A: poor oral absorption

Q: And the CIC95 (viral construct Q60)?
A: below 125 nM

Q: And the IC50 [4]?
A: < 5 nM

Q: What about the solubility [5] of the same compound?
A: relatively low solubility

Q: What about the “potency compared with indinavir” value ([6]; cell spread assay) of the same compound?
A: significantly more potent

Q: And the CIC95 ([6]; wild-type viral construct)?
A: below 50 nM
